Assay results from patent US6900219B2, “ABCA-1 elevating compounds” (CV Therapeutics, Inc., priority 2002, dated 2005).

tested on: ABCA-1 gene; assay: compounds tested and found to elevate cellular expression of the ABCA-1 gene (Examples 1-6; test not named); type: cell-based
Protocol: Activity testing is conducted as described in those patents and patent applications referenced above, and in the Examples below, and by methods apparent to one skilled in the art.

SMILES	cellular expression of the ABCA-1 gene
O=C(Nc1ccc2c(c1)OCCO2)Nc1ccc([N+](=O)[O-])cc1Cl [N-(2H,3H-benzo[e]1,4-dioxin-6-yl)[(2-chloro-4-nitrophenyl)amino]carboxamide]	elevate cellular expression of the ABCA-1 gene
O=C(Nc1ccc(Cl)c(Cl)c1)Nc1ccc2c(c1)OCCO2 [N-(2H,3H-benzo[e]1,4-dioxin-6-yl)[(3,4-dichlorophenyl)amino]carboxamide]	elevate cellular expression of the ABCA-1 gene
O=C(Nc1ccc2c(c1)OCOC2)c1sc2ccccc2c1Cl [N-(2H,4H-benzo[e]1,3-dioxan-7-yl)(3-chlorobenzo[b]thiophen-2-yl)carboxamide]	elevate cellular expression of the ABCA-1 gene
O=C(Nc1cccc(O)c1)Nc1ccc(Cl)c(Cl)c1 [N-(3,4-dichlorophenyl)[(3-hydroxyphenyl)amino]carboxamide]	elevate cellular expression of the ABCA-1 gene
Cc1ccc(NC(=O)Nc2ccc(Cl)c(Cl)c2)cc1 [N-(3,4-dichlorophenyl)[(4-methylphenyl)amino]carboxamide]	elevate cellular expression of the ABCA-1 gene
O=C(NCC1CCCCC1)Nc1ccc(Cl)c(Cl)c1 [N-(3,4-dichlorophenyl)[(cyclohexylmethyl)amino]carboxamide]	elevate cellular expression of the ABCA-1 gene
Cc1ccc(NC(=O)c2ccc3ccccc3c2)cc1C [N-(3,4-dimethylphenyl)-2-naphthylcarboxamide]	elevate cellular expression of the ABCA-1 gene
Cc1ccc(NC(=O)Nc2cccc(Cl)c2)cc1C [N-(3,4-dimethylphenyl)[(3-chlorophenyl)amino]carboxamide]	elevate cellular expression of the ABCA-1 gene
Cc1ccc(NC(=O)Nc2ccc(Cl)cc2)cc1C [N-(3,4-dimethylphenyl)[(4-chlorophenyl)amino]carboxamide]	elevate cellular expression of the ABCA-1 gene
O=C(Nc1cccc(Cl)c1)c1ccc2ccccc2c1 [N-(3-chlorophenyl)-2-naphthylcarboxamide]	elevate cellular expression of the ABCA-1 gene
Cc1cccc(NC(=O)c2cc3ccccc3oc2=O)c1 [N-(3-methylphenyl)(2-oxochromen-3-yl)carboxamide]	elevate cellular expression of the ABCA-1 gene
O=C(Nc1nc(-c2ccc3ccccc3c2)cs1)c1cccc(C(F)(F)F)c1 [N-(4-(2-naphthyl)(1,3-thiazol-2-yl))[3-(trifluoromethyl)phenyl]carboxamide]	elevate cellular expression of the ABCA-1 gene
O=C(Nc1nc(-c2ccc3ccccc3c2)cs1)c1ccc(OC(F)(F)F)cc1 [N-(4-(2-naphthyl)(1,3-thiazol-2-yl))[4-(trifluoromethoxy)phenyl]carboxamide]	elevate cellular expression of the ABCA-1 gene
CC(=O)c1ccc(NC(=O)c2ccc(F)cc2)cc1 [N-(4-acetylphenyl)(4-fluorophenyl)carboxamide]	elevate cellular expression of the ABCA-1 gene
CC(=O)c1ccc(NC(=O)Nc2cccc(Cl)c2)cc1 [N-(4-acetylphenyl)[(3-chlorophenyl)amino]carboxamide]	elevate cellular expression of the ABCA-1 gene
O=C(Nc1ccc(Br)cc1)c1ccc2ccccc2c1 [N-(4-bromophenyl)-2-naphthylcarboxamide]	elevate cellular expression of the ABCA-1 gene
N#Cc1cccc(C(=O)Nc2nc3c(Cl)cccc3s2)c1 [N-(4-chlorobenzothiazol-2-yl)(3-cyanophenyl)carboxamide]	elevate cellular expression of the ABCA-1 gene
O=C(Nc1nc2c(Cl)cccc2s1)c1cccc(F)c1 [N-(4-chlorobenzothiazol-2-yl)(3-fluorophenyl)carboxamide]	elevate cellular expression of the ABCA-1 gene
N#Cc1ccc(C(=O)Nc2nc3c(Cl)cccc3s2)cc1 [N-(4-chlorobenzothiazol-2-yl)(4-cyanophenyl)carboxamide]	elevate cellular expression of the ABCA-1 gene
O=C(Nc1nc2c(Cl)cccc2s1)c1ccco1 [N-(4-chlorobenzothiazol-2-yl)-2-furylcarboxamide]	elevate cellular expression of the ABCA-1 gene
O=C(Nc1nc2c(Cl)cccc2s1)c1cccs1 [N-(4-chlorobenzothiazol-2-yl)-2-thienylcarboxamide]	elevate cellular expression of the ABCA-1 gene
CCCc1c(C(=O)Nc2nc3c(Cl)cccc3s2)cnn1-c1ccc(Cl)cc1 [N-(4-chlorobenzothiazol-2-yl)[1-(4-chlorophenyl)-5-propylpyrazol-4-yl]carboxamide]	elevate cellular expression of the ABCA-1 gene

SMILES	cellular expression of the ABCA-1 gene
O=C(Nc1ccc(Cl)cc1)c1ccc2ccccc2c1 [N-(4-chlorophenyl)-2-naphthylcarboxamide]	elevate cellular expression of the ABCA-1 gene
CCOc1ccc(NC(=O)Nc2ccc(Cl)cc2)cc1 [N-(4-ethoxyphenyl)[(4-chlorophenyl)amino]carboxamide]	elevate cellular expression of the ABCA-1 gene
O=C(Nc1ccc(F)cc1)c1cc2ccccc2oc1=O [N-(4-fluorophenyl)(2-oxochromen-3-yl)carboxamide]	elevate cellular expression of the ABCA-1 gene
Cc1ccc(NC(=O)Oc2ccc(C3=NCCS3)cc2)cc1 [N-(4-methylphenyl)(4-(1,3-thiazolin-2-yl)phenoxy)carboxamide]	elevate cellular expression of the ABCA-1 gene
Cc1cc(C)c2ccc(NC(=O)c3ccc(Cl)cc3)nc2n1 [N-(5,7-dimethylpyridino[3,2-e]pyridin-2-yl)(4-chlorophenyl)carboxamide]	elevate cellular expression of the ABCA-1 gene
O=C(Cc1cccs1)Nc1ncc(-c2ccccc2)s1 [N-(5-phenyl(1,3-thiazol-2-yl))-2-(2-thienyl)acetamide]	elevate cellular expression of the ABCA-1 gene
O=C(Nc1ncc(-c2ccccc2)s1)c1ccccn1 [N-(5-phenyl(1,3-thiazol-2-yl))-2-pyridylcarboxamide]	elevate cellular expression of the ABCA-1 gene
O=C(Nc1ncc(-c2ccccc2)s1)c1cccc(C(F)(F)F)c1 [N-(5-phenyl(1,3-thiazol-2-yl))[3-(trifluoromethyl)phenyl]carboxamide]	elevate cellular expression of the ABCA-1 gene
O=C(Nc1ncc(-c2ccccc2)s1)c1ccc(OC(F)(F)F)cc1 [N-(5-phenyl(1,3-thiazol-2-yl))[4-(trifluoromethoxy)phenyl]carboxamide]	elevate cellular expression of the ABCA-1 gene
N#Cc1cccc(C(=O)Nc2nc3ccc(Cl)cc3s2)c1 [N-(6-chlorobenzothiazol-2-yl)(3-cyanophenyl)carboxamide]	elevate cellular expression of the ABCA-1 gene
CCOc1ccc2nc(NC(=O)Nc3ccccc3)sc2c1 [N-(6-ethoxybenzothiazol-2-yl)(phenylamino)carboxamide]	elevate cellular expression of the ABCA-1 gene
CCOc1ccc2nc(NC(=O)CC)sc2c1 [N-(6-ethoxybenzothiazol-2-yl)propanamide]	elevate cellular expression of the ABCA-1 gene
O=C(c1ccc(Br)cc1)N(CCc1ccccc1)Cc1c2ccccc2cc2ccccc12 [N-(9-anthrylmethyl)(4-bromophenyl)-N-(2-phenylethyl)carboxamide]	elevate cellular expression of the ABCA-1 gene
CCOc1ccc(C(=O)N(Cc2c3ccccc3cc3ccccc23)C(=O)Nc2ccccc2F)cc1 [N-(9-anthrylmethyl)(4-ethoxyphenyl)-N-{[(2-fluorophenyl)amino]carbonyl}-carboxamide]	elevate cellular expression of the ABCA-1 gene
COc1ccc(C(=O)N(CCc2ccccc2)Cc2c3ccccc3cc3ccccc23)cc1 [N-(9-anthrylmethyl)(4-methoxyphenyl)-N-(2-phenylethyl)carboxamide]	elevate cellular expression of the ABCA-1 gene
CCc1ccc(N(Cc2c3ccccc3cc3ccccc23)C(=O)Nc2ccccc2F)cc1 [N-(9-anthrylmethyl)-N-(4-ethylphenyl)[(2-fluorophenyl)amino]carboxamide]	elevate cellular expression of the ABCA-1 gene
CCn1c2ccccc2c2cc(NC(=O)c3ccc(F)cc3)ccc21 [N-(9-ethylcarbazol-3-yl)(4-fluorophenyl)carboxamide]	elevate cellular expression of the ABCA-1 gene
CCn1c2ccccc2c2cc(NC(=O)c3ccc(OC)cc3)ccc21 [N-(9-ethylcarbazol-3-yl)(4-methoxyphenyl)carboxamide]	elevate cellular expression of the ABCA-1 gene
CCn1c2ccccc2c2cc(NC(=O)c3ccc(C)cc3)ccc21 [N-(9-ethylcarbazol-3-yl)(4-methylphenyl)carboxamide]	elevate cellular expression of the ABCA-1 gene
CCCCCCCCCCCC(=O)N(/C=C/c1ccccc1)c1ccc(CC)cc1 [N-((1E)-2-phenylvinyl)-N-(4-ethylphenyl)dodecanamide]	elevate cellular expression of the ABCA-1 gene
CCc1ccc(C(=O)N(C/C=C/c2ccccc2)c2ccc(Br)cc2)cc1 [N-((2E)-3-phenylprop-2-enyl)-N-(4-bromophenyl)(4-ethylphenyl)carboxamide]	elevate cellular expression of the ABCA-1 gene
